# Measured values: patent US5998666A, “Phenoxyethylamine derivatives, method of preparation, application as medicine and pharmaceutical compositions containing same” (Societe de Conseils de Recherches Et d'Applications …, priority 1996, dated 1999)
# Target: T1, 5-HT1A receptor (Rattus norvegicus, UniProt P19327)
# T1 construct: from tissue; host or cells: cerebral cortex membranes of male Sprague Dawley rats
# T1 sequence (P19327 1-422): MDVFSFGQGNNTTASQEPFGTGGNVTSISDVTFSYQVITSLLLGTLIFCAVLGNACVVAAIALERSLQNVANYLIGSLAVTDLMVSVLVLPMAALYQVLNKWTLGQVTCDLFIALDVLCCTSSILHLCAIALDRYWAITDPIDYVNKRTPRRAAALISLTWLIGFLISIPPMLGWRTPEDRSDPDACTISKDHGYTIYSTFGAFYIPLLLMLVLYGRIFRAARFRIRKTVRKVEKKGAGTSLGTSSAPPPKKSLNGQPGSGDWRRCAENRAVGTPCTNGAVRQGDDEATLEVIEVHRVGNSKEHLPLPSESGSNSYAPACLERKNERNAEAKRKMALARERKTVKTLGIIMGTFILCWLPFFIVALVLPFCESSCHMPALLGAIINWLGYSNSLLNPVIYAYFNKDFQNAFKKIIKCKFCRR
# Assay: Affinity for 5-HT1A receptor: inhibition of [3H]8-OH-DPAT binding to rat cerebral cortex membranes
# Settings: [3H]8-OH-DPAT (1 nM), 30 min at 25° C., Tris-HCl 50 mM, pH=7.4
# Protocol: The affinity of the compounds for serotonergic 5-HT1A receptors is determined by measuring the inhibition of [3H]8-hydroxy-2-(di-n-propylaminotetralin ([3H]8-OH-DPAT) bound to the cerebral cortex of the rat, according to the method of Peroutka and his coworkers [(J. Neurochem., 47, 529 (1986)].
# Cerebral cortices of male Sprague Dawley rats are homogenised in Tris-HCl 50 mM, pH=7.4 and centrifuged at 40,000 g for 10 min at 4° C. Pellets are resuspended in the same buffer and incubated for 10 min at 37° C., and the homogenised products are centrifuged again at 40,000 g for 10 min at 4° C.
# Competitive inhibition tests of [3H]8-OH-DPAT binding are carried out three times with unlabelled competitors, with concentrations between 100 pM and 100 μM. Cerebral cortex membranes of rats (10 mg wet weight/ml) are incubated with [3H]8-OH-DPAT (1 nM) for 30 min at 25° C. in Tris-HCl 50 mM, pH=7.4 containing 4 mM of CaCl2, […] of paragyline and 0.1% of ascorbic acid.
# The bound [3H]8-OH-DPAT is separated from free [3H]8-OH-DPAT by immediate filtration by means of Whatman GF/B glass fibre filters using a Brandel cell recovery device. The filters are washed three times with the same buffer at 0-4° C. and their radioactivity is studied by means of a liquid scintillation spectrometer.
# The specific binding is obtained by subtracting the binding determined in the presence of […] of 8-OH-DPAT from the total binding. The characteristics of the binding are analysed by iterative analysis of the non-linear regression by computer, using the Ligand program [Munson and Rodbard, Anal. Biochem., 107, 220 (1980)].
row,SMILES,Ki [nM]
1,"COc1ccccc1OCCNCCCCC(=O)NC(C)(C)C [Compound 1, N-tert-butyl-5-[{2-(2-methoxyphenoxy)ethyl}amino]pentanamide]",0.54
2,"CC(C)(C)CNC(=O)CCCCNCCOc1cccc(NC(N)=O)c1 [Compound 9, N-neopentyl-5-[{2-(3-(aminocarbonylamino)phenoxy)ethyl}-amino]pentanamide]",0.41
3,"CC(=O)Nc1cccc(OCCNCCCCC(=O)NC2CCCCC2)c1 [Compound 11, N-cyclohexyl-5-[{2-(3-(methylcarbonylamino)phenoxy)ethyl}amino]pentanamide]",0.37
4,"CC(=O)Nc1cccc(OCCNCCCCC(=O)NCC(C)(C)C)c1 [Compound 12, N-neopentyl-5-[{2-(3-(methylcarbonylamino)phenoxy)ethyl}-amino]pentanamide]",0.88
5,"COC(=O)Nc1cccc(OCCNCCCCC(=O)NCC(C)(C)C)c1 [Compound 13, N-neopentyl-5-[{2-(3-(methoxycarbonylamino)phenoxy)ethyl}amino]pentanamide]",0.84

# Stronger by Ki, values ahead:
row,Ki [nM],SMILES
1,0.19,"COc1ccccc1OCCNCCCCC(=O)NC1CCCCC1 [Compound 2, N-cyclohexyl-5-[{2-(2-methoxyphenoxy)ethyl}amino]pentanamide]"
2,0.32,"COc1ccccc1OCCNCCCCC(=O)NCC(C)(C)C [Compound 3, N-neopentyl-5-[{2-(2-methoxyphenoxyl)ethyl}amino]pentanamide]"
3,0.29,"COc1ccccc1OCCNCCCCC(=O)NC1CCCC1 [Compound 4, N-cyclopentyl-5-[{2-(2-methoxyphenoxy)ethyl}amino]pentanamide]"
4,0.098,"COc1ccccc1OCCNCCCCC(=O)NC1CCCCCC1 [Compound 5, N-cycloheptyl-5-[{2-(2-methoxyphenoxy)ethyl}amino]pentanamide]"
5,0.13,"NC(=O)Nc1cccc(OCCNCCCCC(=O)NC2CCCCCC2)c1 [Compound 10, N-cyclcoheptyl-5-[{2-(3-(aminocarbonylamino)phenoxy)ethyl}amino]pentanamide]"
